In patent US20050080024A1, “Nitric oxide donating derivatives for the treatment of cardiovascular disorders” (priority 2002, published 2005):
Read-outs that look alike come from different tables or passages of the source.

Key:
C. albicans = assay: Murine model for systemic candidiasis; assay type: in vivo; conditions: treated mice; fluconazole orally
Method: In addition, fungicidal compounds of the invention are efficacious in a murine model for systemic candidiasis. Fungicidal compounds of the invention prolong mean and median survival times of treated mice. The compounds are administered IP producing a similar survival pattern as that produced by the positive control compound fluconazole administered orally. […] Fungicidal compounds of the invention are also efficacious when administered orally to mice with an established systemic Candida infection. The compound given orally is similar in efficacy to fluconazole as measured by survival time, percent cures and kidney burden. Fungicidal compounds of the invention are also effective against systemic candidiasis caused by a strain of C. albicans resistant to fluconazole.

[1] = human study; cited from earlier work
[2] = rabbits; cited from earlier work
ApoA-1 gene = conditions: putatively mediated through Site S (PCT/CA03/01220); cited from earlier work

SMILES: OC(Cn1cncn1)(Cn1cncn1)c1ccc(F)cc1F [fluconazole]
- recoverable colonies from the kidneys (C. albicans): reduce recoverable colonies from the kidneys

SMILES: O=C1CC(c2ccc(O)cc2)Oc2cc(O)cc(O)c21 (stereo not shown) [naringenin, 5,7-dihydroxy-2-(4-hydroxy-phenyl)-chroman-4-one]
- HDL [1]: increase HDL
- LDL [1]: no effect
- triglycerides [1]: no effect
- HDL [2]: no effect upon HDL
- LDL [2]: decrease LDL

SMILES: Oc1ccc(/C=C/c2cc(O)cc(O)c2)cc1 [resveratrol, 5-[(E)-2-(4-hydroxy-phenyl)-vinyl]-benzene-1,3-diol]
- transcription of apolipoprotein Al (ApoA-1 gene): increase the transcription of apolipoprotein Al
